Here are results for 2 molecules from patent EP0278158A2, “Renin inhibitors containing phenylalanyl-histidine replacements” (Merck & Co., Inc., priority 1986, dated 1988).

Non-standard residues stand in square brackets, D forms with d. Residues, ends and D or L forms follow the SMILES beside them. *: point of attachment. Sta = CC(C)C[C@H](N)[C@@H](O)CC(=O)O; Isovaleryl = CC(C)CC(=O)*

For one test, the target named is T1, renin (Homo sapiens, UniProt P00797).
T1 sequence (P00797 67-406): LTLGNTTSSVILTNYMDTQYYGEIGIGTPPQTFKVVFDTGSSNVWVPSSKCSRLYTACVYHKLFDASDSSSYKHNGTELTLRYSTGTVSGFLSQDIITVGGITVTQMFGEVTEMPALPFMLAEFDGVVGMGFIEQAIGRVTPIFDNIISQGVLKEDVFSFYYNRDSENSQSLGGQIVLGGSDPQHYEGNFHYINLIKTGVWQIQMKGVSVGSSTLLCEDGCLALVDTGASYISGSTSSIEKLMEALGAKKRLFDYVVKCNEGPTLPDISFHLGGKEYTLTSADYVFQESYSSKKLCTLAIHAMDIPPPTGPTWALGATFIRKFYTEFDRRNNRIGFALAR
Briefly: renin inhibition (IC50 printed in the synthesis example, no method described). It counts as biochemical.

The next test deals with hog renin. To be noted: after the injection of hog renin into nephrectomized rats; Gross et al., Science 175:656, 1972; cited from earlier work.

Regarding `CC(C)S(=O)(=O)C[C@@H](CCc1ccccc1)C(=O)N[C@@H](Cc1cnc[nH]1)C(=O)N[C@@H](CC1CCCCC1)[C@@H](O)CC(=O)NC1CN2CCC1CC2` (stereo partly drawn) [3-benzyl-2-(S)-(isopropylsuffonylmethyl)propionyl-L-histidyl-(3S,4S)-4-amino-5-cyclohexyl 3-hydroxypentanoyl 3-quinuclidinyl amide], on renin, the IC50 is 11 nM.

Turning to `CC(C)CC(=O)N[C@H](C(=O)N[C@H](C(=O)N[C@@H](CC(C)C)[C@@H](O)CC(=O)N[C@@H](C)C(=O)N[C@@H](CC(C)C)[C@@H](O)CC(=O)O)C(C)C)C(C)C` [pepstatin] (Isovaleryl-VV[Sta]A[Sta]-OH), the “blood pressure in vivo” value in the test with hog renin was “reduces blood pressure”.
